# Key:
# [1] = target: T1, CBL-B (residues 36-427) (Homo sapiens, UniProt Q13191); assay: Ligand Displacement Assay (LDA), HTRF competitive binding against BODIPY-labeled fluorescent tracer, CBL-B; conditions: geometric mean of the number of tests, read-out: CBL-B Ki (nM) GMean
# T1 construct: Purified CBL-B (residues 36-427) and C-CBL (residues 46-435) proteins from baculovirus-infected insect cells; made in house; host or cells: baculovirus-infected insect cells
# Summary of the method: (§1)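 Insect-cell (baculovirus) protein, N-term AviTag biotinylated via BirA, captured by SA-Tb; BODIPY tracer, KD measured per protein. 3-fold serial dilutions, duplicate, […], 2% DMSO final. Ki (nM) = geomean of runs.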
# [2] = target: T2, C-CBL (residues 46-435) (Homo sapiens, UniProt P22681); assay: Ligand Displacement Assay (LDA), HTRF competitive binding against BODIPY-labeled fluorescent tracer, C-CBL; conditions: geometric mean of the number of tests, read-out: C-CBL Ki (nM) GMean
# T2 construct: Purified CBL-B (residues 36-427) and C-CBL (residues 46-435) proteins from baculovirus-infected insect cells; made in house; host or cells: baculovirus-infected insect cells
# T2 sequence (P22681 46-435): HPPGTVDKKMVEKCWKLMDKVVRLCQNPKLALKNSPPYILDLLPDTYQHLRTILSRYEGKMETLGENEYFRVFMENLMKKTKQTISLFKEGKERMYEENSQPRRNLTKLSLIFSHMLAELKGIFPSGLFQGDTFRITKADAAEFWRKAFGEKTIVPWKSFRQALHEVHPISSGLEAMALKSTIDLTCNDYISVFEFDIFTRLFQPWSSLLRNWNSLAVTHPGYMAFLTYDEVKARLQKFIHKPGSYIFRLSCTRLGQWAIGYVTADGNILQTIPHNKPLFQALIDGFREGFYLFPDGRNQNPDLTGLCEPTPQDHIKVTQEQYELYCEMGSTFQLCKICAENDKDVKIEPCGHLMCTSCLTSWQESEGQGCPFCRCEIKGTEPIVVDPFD
# Summary of the method: as §1
# [3] = target: T3, WT CBL-B (36-427) (Homo sapiens, UniProt Q13191); assay: Surface Plasmon Resonance (SPR) assay, binding affinity and kinetics, CBL-B; conditions: SPR at 10° C., biotinylated WT CBL-B (36-427) on streptavidin chip; geometric mean; read-out: CBL-B SPR Kd (nM) GMean
# T3 construct: N-terminal biotinylated WT CBL-B (36-427) and C-CBL (46-435) were captured on a streptavidin (SA) coated sensor chip
# Summary of the method: (§2)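 Biotinylated WT CBL-B (36-427) or C-CBL (46-435) captured on streptavidin chip (~5000–6000 RU); binding at 10° C in HEPES buffer pH 7.2 with 2% DMSO. Multi-cycle: 2-fold, 10-point series from 10 or 100 μM, 90 s association. Single-cycle: 3-fold, 6-point, 0.001–1 μM, 120 s association, >5400 s dissociation.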
# [4] = target: T4, C-CBL (46-435) (Homo sapiens, UniProt P22681); assay: Surface Plasmon Resonance (SPR) assay, binding affinity and kinetics, C-CBL; conditions: SPR at 10° C., biotinylated C-CBL (46-435) on streptavidin chip; geometric mean; read-out: C-CBL SPR Kd (nM) GMean
# T4 construct: N-terminal biotinylated WT CBL-B (36-427) and C-CBL (46-435) were captured on a streptavidin (SA) coated sensor chip
# T4 sequence (P22681 46-435): T2 sequence (P22681 46-435)
# Summary of the method: as §2
SMILES,Ki [1] [nM],Ki [2] [nM],Kd [3] [nM],Kd [4] [nM]
"CN1CC[C@H](Oc2nc(C(F)(F)F)cc3c(-c4cccc(C5(Cc6nncn6C)COC5)c4)n[nH]c23)C1 [Example J1, 7-{[(3S)-1-methylpyrrolidin-3-yl]oxy}-3-(3-{3-[(4-methyl-4H-1,2,4-triazol-3-yl)methyl]oxetan-3-yl}phenyl)-5-(trifluoromethyl)-1H-pyrazolo[3,4-c]pyridine]",13.5,58.1,4.3,36.7
"C[C@H](c1nc(C(F)(F)F)cc2c(-c3cccc(C4(Cc5nncn5C)COC4)c3)n[nH]c12)N1CCNCC1 (single isomer, unassigned) [Example D54]",20.9,80,8.2,61.7
"CN1CCC(Oc2nc(C(F)(F)F)cc3c(-c4cccc(C5(Cc6nncn6C)COC5)c4)n[nH]c23)C1 (stereo in doubt) [Example J2, 7-{[(3S)-1-methylpyrrolidin-3-yl]oxy}-3-(3-{3-[(4-methyl-4H-1,2,4-triazol-3-yl)methyl]oxetan-3-yl}phenyl)-5-(trifluoromethyl)-1H-pyrazolo[3,4-c]pyridine]",19.1,76.6,4.8,37.6
"Cn1cnnc1[C@@H](c1cccc(-c2n[nH]c3c(CN4CC[C@H](O)C4)nc(C(F)(F)F)cc23)c1)C1CCC1 [Example C77, (3S)-1-{[3-{3-[(R)-cyclobutyl(4-methyl-4H-1,2,4-triazol-3-yl)methyl]phenyl}-5-(trifluoromethyl)-1H-pyrazolo[3,4-c]pyridin-7-yl]methyl}pyrrolidin-3-ol]",2.4,29.5,2.5,54.9
"C[C@H](Cc1nncn1C)c1cccc(-c2n[nH]c3cnc(C(F)(F)F)cc23)c1 [Example N1, 3-{3-[(2R)-1-(4-methyl-4H-1,2,4-triazol-3-yl)propan-2-yl]phenyl}-5-(trifluoromethyl)-1H-pyrazolo[3,4-c]pyridine]",70,249,35.8,275
"Cn1cnnc1[C@@H](c1cccc(-c2n[nH]c3c(CNC4CCNC(=O)C4)nc(C(F)(F)F)cc23)c1)C1CCC1 (single isomer, unassigned) [Example C88]",7.2,132,4.8,59.7
"CC(C)NC(C)c1nc(C(F)(F)F)cc2c(-c3cccc(C4(Cc5nncn5C)COC4)c3)n[nH]c12 (single isomer, unassigned) [Example C79, N-{(1ξ)-1-[3-(3-{3-[(4-methyl-4H-1,2,4-triazol-3-yl)methyl]oxetan-3-yl}phenyl)-5-(trifluoromethyl)-1H-pyrazolo[3,4-c]pyridin-7-yl]ethyl}propan-2-amine]",20.4,94.1,3.2,121
"Cn1cnnc1[C@@H](c1cccc(-c2n[nH]c3c(CN4CC[C@@H](F)C4)nc(C(F)(F)F)cc23)c1)C1CCC1 [Example C109, 3-{3-[(R)-cyclobutyl(4-methyl-4H-1,2,4-triazol-3-yl)methyl]phenyl}-7-{[(3R)-3-fluoropyrrolidin-1-yl]methyl}-5-(trifluoromethyl)-1H-pyrazolo[3,4-c]pyridine]",48.8,442,8.8,174
"CC(CN)c1nc(C(F)(F)F)cc2c(-c3cccc(C4(Cc5nncn5C)COC4)c3)n[nH]c12 (single isomer, unassigned) [Example K6, (2ξ)-2-[3-(3-{3-[(4-methyl-4H-1,2,4-triazol-3-yl)methyl]oxetan-3-yl}phenyl)-5-(trifluoromethyl)-1H-pyrazolo[3,4-c]pyridin-7-yl]propan-1-amine]",26.5,78.6,11.3,125
"C[C@H](c1nc(C(F)(F)F)cc2c(-c3cccc(C4(Cc5nncn5C)COC4)c3)n[nH]c12)N1CC(F)(F)C1 (single isomer, unassigned) [Example D46]",46.5,250,12.2,184
"Cn1cnnc1[C@@H](c1cccc(-c2n[nH]c3c(CN[C@@H]4CCOC4)nc(C(F)(F)F)cc23)c1)C1CCC1 [Example C104, (3R)-N-{[3-{3-[(R)-cyclobutyl(4-methyl-4H-1,2,4-triazol-3-yl)methyl]phenyl}-5-(trifluoromethyl)-1H-pyrazolo[3,4-c]pyridin-7-yl]methyl}oxolan-3-amine]",28,218,8.2,328
"CN1CC[C@@H](N(C)c2nc(C(F)(F)F)cc3c(-c4cccc([C@H](c5nncn5C)C5CCC5)c4)n[nH]c23)C1 [Example J11, 3-{3-[(R)-cyclobutyl(4-methyl-4H-1,2,4-triazol-3-yl)methyl]phenyl}-N-methyl-N-[(3R)-1-methylpyrrolidin-3-yl]-5-(trifluoromethyl)-1H-pyrazolo[3,4-c]pyridin-7-amine]",41.6,275,24,393
"C[C@H](c1nc(C(F)(F)F)cc2c(-c3cccc(C4(Cc5nncn5C)COC4)c3)n[nH]c12)N1CCNC(=O)C1 (single isomer, unassigned) [Example D52]",31.9,118,10.1,79.1
"Cn1cnnc1CC1(c2cccc(-c3n[nH]c4c(CNC5CCC5)nc(C(F)(F)F)cc34)c2)COC1 [Example C57, N-{[3-(3-{3-[(4-methyl-4H-1,2,4-triazol-3-yl)methyl]oxetan-3-yl}phenyl)-5-(trifluoromethyl)-1H-pyrazolo[3,4-c]pyridin-7-yl]methyl}cyclobutanamine]",18.9,96.3,3.3,116
"CC(CN)c1nc(C(F)(F)F)cc2c(-c3cccc(C4(Cc5nncn5C)COC4)c3)n[nH]c12 (single isomer, unassigned) [Example K7, (2ξ)-2-[3-(3-{3-[(4-methyl-4H-1,2,4-triazol-3-yl)methyl]oxetan-3-yl}phenyl)-5-(trifluoromethyl)-1H-pyrazolo[3,4-c]pyridin-7-yl]propan-1-amine]",26.6,97.8,8,94.9
"CC(C)NC(C)c1nc(C(F)(F)F)cc2c(-c3cccc(C4(Cc5nncn5C)COC4)c3)n[nH]c12 (single isomer, unassigned) [Example C80, N-{(1ξ)-1-[3-(3-{3-[(4-methyl-4H-1,2,4-triazol-3-yl)methyl]oxetan-3-yl}phenyl)-5-(trifluoromethyl)-1H-pyrazolo[3,4-c]pyridin-7-yl]ethyl}propan-2-amine]",10.1,71.5,1.7,68.5
"Cn1cnnc1CC1(c2cccc(-c3n[nH]c4c(CN5CCC(F)(F)C5)nc(C(F)(F)F)cc34)c2)COC1 [Example C70, 7-[(3,3-difluoropyrrolidin-1-yl)methyl]-3-(3-{3-[(4-methyl-4H-1,2,4-triazol-3-yl)methyl]oxetan-3-yl}phenyl)-5-(trifluoromethyl)-1H-pyrazolo[3,4-c]pyridine]",20.6,113,6,80
"Cn1cnnc1CC1(c2cccc(-c3n[nH]c4c(CN5CC[C@H](F)C5)nc(C(F)(F)F)cc34)c2)COC1 [Example C73, 7-{[(3S)-3-fluoropyrrolidin-1-yl]methyl}-3-(3-{3-[(4-methyl-4H-1,2,4-triazol-3-yl)methyl]oxetan-3-yl}phenyl)-5-(trifluoromethyl)-1H-pyrazolo[3,4-c]pyridine]",19.3,111,9,94
"Cn1cnnc1[C@@H](c1cccc(-c2n[nH]c3c(CN4C[C@@H](F)[C@@H](F)C4)nc(C(F)(F)F)cc23)c1)C1CCC1 [Example C107, 3-{3-[(R)-cyclobutyl(4-methyl-4H-1,2,4-triazol-3-yl)methyl]phenyl}-7-{[(3R,4S)-3,4-difluoropyrrolidin-1-yl]methyl}-5-(trifluoromethyl)-1H-pyrazolo[3,4-c]pyridine]",33.9,363,3.7,158
"C[C@H](c1nc(C(F)(F)F)cc2c(-c3cccc(C4(Cc5nncn5C)COC4)c3)n[nH]c12)N1CCCC1 (single isomer, unassigned) [Example D48]",16.1,44.9,9.3,74.6

# Reference: US20260125375A1 (Pfizer Inc., priority 2022, published 2026)
